Measurements reported in PubChem BioAssay (NCI).
Values joined by “and” are separate entries in the source; they are usually repeats but may differ in a detail not shown here. Identical values can stand only once.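 A five-concentration, 48-hour dose response in 96-well plates underlies each endpoint, interpolated linearly between surrounding concentrations. Abbreviation: GI50, concentration required for 50% inhibition of growth. TGI: total growth inhibition.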

How the values were obtained:
Assay in all cases: inhibition of tumour cell growth, NCI panel, 48 h
[1] = tested on: MALME-3M melanoma
[2] = tested on: M19-MEL melanoma
[3] = tested on: KM20L2 colon
[4] = tested on: SF-539 CNS
[5] = tested on: DMS 273 small cell lung
[6] = tested on: DLD-1 colon
[7] = tested on: CCRF-CEM leukemia
[8] = tested on: HCC-2998 colon
[9] = tested on: SF-295 CNS
[10] = tested on: HCT-15 colon
[11] = tested on: HS 578T breast
[12] = tested on: MCF7 breast

SMILES | TGI [1] | TGI [2] | TGI [3] | TGI [4] | TGI [5] | TGI [6] | TGI [7] | TGI [8] | TGI [9] | TGI [10] | GI50 [4] | TGI [11] | GI50 [7] | GI50 [9] | TGI [12] | GI50 [10] | GI50 [1] | GI50 [11] | GI50 [8] | GI50 [12]
CCc1cccc(C)c1NC(=O)C(=O)Cc1nc2ccccc2s1 | > 100 µM | > 100 µM | > 100 µM | > 100 µM | > 100 µM | > 100 µM | > 100 µM | > 100 µM | > 100 µM |  |  |  |  |  |  |  |  |  |  | 
COc1ccc(OC)c(NC(=O)CCC/C(CC(=O)c2ccc(O)c(OC)c2)=N\Nc2ccc([N+](=O)[O-])cc2)c1 | > 100 µM | > 100 µM | > 100 µM | > 100 µM | > 100 µM | > 100 µM | > 100 µM | > 100 µM | > 100 µM | > 100 µM |  |  |  |  |  |  |  |  |  | 
O=S1(=O)OCCOS(=O)(=O)C1Cc1ccccc1 | > 100 µM | > 100 µM | > 100 µM | 95.6 µM | > 100 µM | > 100 µM |  | 45.4 µM | > 100 µM |  |  |  |  |  |  |  |  |  |  | 
Cc1ccc(Nc2nc(C)c(C(/C=C/c3ccc(/C=C/C(=N/NC(=O)C[n+]4ccccc4)c4sc(Nc5ccc(C)cc5[N+](=O)[O-])nc4C)cc3)=N\NC(=O)C[n+]3ccccc3)s2)c([N+](=O)[O-])c1 | > 100 µM | > 100 µM | > 100 µM | > 100 µM | > 100 µM | > 100 µM | > 100 µM | > 100 µM | > 100 µM | > 100 µM |  |  |  |  |  |  |  |  |  | 
CN(C(=O)c1ccco1)C(=S)N1CCN(c2ccccc2)CC1 | > 100 µM | > 100 µM | > 100 µM | > 100 µM | > 100 µM | > 100 µM | > 100 µM |  | > 100 µM | > 100 µM |  |  |  |  |  |  |  |  |  | 
O=C1CC(S(=O)(=O)O)C=C1Nc1cccc(Cl)c1 (centres undefined) | > 100 µM | > 100 µM | > 100 µM | > 100 µM | > 100 µM | > 100 µM | > 100 µM | > 100 µM | > 100 µM |  |  |  |  |  |  |  |  |  |  | 
N#CC(c1nc2ccccc2nc1Cl)S(=O)(=O)c1ccccc1 (centres undefined) | > 100 µM | > 100 µM | > 100 µM | > 100 µM | > 100 µM | > 100 µM | > 100 µM | > 100 µM |  | > 100 µM |  |  |  |  |  |  |  |  |  | 
COC(=O)C1=C(c2cc(OC)c(OC)c(OC)c2)OC(c2ccc(OC)c(OC)c2)C1 (centres undefined) | > 100 µM | > 100 µM | > 100 µM | > 100 µM | > 100 µM | > 100 µM | > 100 µM | > 100 µM | > 100 µM | > 100 µM |  |  |  |  |  |  |  |  |  | 
C/C(CC(=O)Nc1ccc(Cl)cc1)=N\NC(N)=S | > 100 µM | > 100 µM | > 100 µM | > 100 µM | > 100 µM | > 100 µM | > 100 µM | 75.7 µM | > 100 µM |  |  |  |  |  |  |  |  |  |  | 
COc1cc(C2C(Cl)C(=O)N2NC(=O)c2ccc(N)cc2)ccc1O (centres undefined) | 32.1 µM | > 100 µM | > 100 µM | 62.1 µM | > 100 µM | > 100 µM | 47.3 µM | 38 µM | > 100 µM | > 100 µM |  |  |  |  |  |  |  |  |  | 
Cc1cc(Cl)ccc1NC(=O)CC/C(CC(=O)C(C)C)=N\NC(=O)C[n+]1ccccc1 | > 100 µM |  | > 100 µM | > 100 µM | > 100 µM |  | > 100 µM | > 100 µM | > 100 µM | > 100 µM |  |  |  |  |  |  |  |  |  | 
CCOC(=O)NC(=O)c1cn(CCN2CCN(c3ncnc4nc[nH]c34)CC2)c(=O)[nH]c1=O | > 100 µM | > 100 µM | > 100 µM | > 100 µM |  | > 100 µM | > 100 µM | > 100 µM | > 100 µM | > 100 µM |  |  |  |  |  |  |  |  |  | 
[N-]=[N+]=NC(CI)c1cn([C@H]2C[C@H](O)[C@@H](CO)O2)c(=O)[nH]c1=O (some centres undefined) | > 100 µM | > 100 µM | > 100 µM | > 100 µM | > 100 µM | > 100 µM | > 100 µM | > 100 µM | > 100 µM | > 100 µM |  |  |  |  |  |  |  |  |  | 
Cc1ccccc1NC(=O)C(=O)CC(=O)c1c(C)n([O-])c2ccccc2[n+]1=O | > 100 µM | > 100 µM | > 100 µM | > 100 µM | > 100 µM | > 100 µM |  | > 100 µM | > 100 µM | > 100 µM |  |  |  |  |  |  |  |  |  | 
C=C1c2[nH]c3c([N+](=O)[O-])c(OC)ccc3c2CCN1C(C)=O |  |  | > 100 µM | > 100 µM | > 100 µM | 38.4 µM | > 100 µM | > 100 µM | > 100 µM | > 100 µM |  |  |  |  |  |  |  |  |  | 
Cc1[nH]c2ccccc2c1C1Cc2ccccc2N1C(=O)/C=C/C(=O)O (centres undefined) | > 100 µM | > 100 µM | > 100 µM | > 100 µM | > 100 µM | > 100 µM | > 100 µM | > 100 µM | > 100 µM | 33 µM |  |  |  |  |  |  |  |  |  | 
CN1c2ccccc2N(C)C23N(C)c4ccccc4N(C)C12N(C)c1ccccc1N3C (centres undefined) | > 100 µM | > 100 µM | > 100 µM | > 100 µM | > 100 µM | > 100 µM | > 100 µM | > 100 µM | > 100 µM | > 100 µM |  |  |  |  |  |  |  |  |  | 
COc1ccc(/C=C\c2cc(OC)c(OC)c(OC)c2)cc1OC | 91.6 µM |  | 0.141 µM | 0.294 µM and 0.283 µM |  | 40.4 µM |  | 0.579 µM and 0.372 µM | 40.4 µM and > 100 µM | 40.4 µM and > 100 µM | 0.0605 µM | 68 µM | 0.0791 µM | 0.0672 µM | > 100 µM | 0.0595 µM |  |  |  | 
O=C(c1ccccc1)c1cccc(C(=O)c2ccccc2)c1 | > 100 µM | > 100 µM |  | > 100 µM | > 100 µM | > 100 µM | > 100 µM | > 100 µM | > 100 µM |  |  |  |  |  |  |  |  |  |  | 
Cc1ccc(N2C(=O)C3C=CC(n4[nH]c(=O)n(Cc5ccccc5)c4=O)CC3C2=O)cc1 (centres undefined) | > 100 µM | > 100 µM | > 100 µM | > 100 µM | > 100 µM | > 100 µM | > 100 µM | > 100 µM | > 100 µM | > 100 µM |  |  |  |  |  |  |  |  |  | 
CCOc1ccccc1N=Nc1c(C)[nH]n(-c2nc(-c3ccccc3)cs2)c1=O | > 100 µM |  |  | > 100 µM |  |  | > 100 µM | > 100 µM | > 100 µM | > 100 µM | 27.5 µM | > 95.1 µM | > 100 µM | 28.3 µM | > 100 µM | > 100 µM | 60.9 µM | 29.2 µM | > 100 µM | 12.4 µM
